Measurements from article PMC7794544, “Microbial production of multiple short-chain primary amines via retrobiosynthesis” (Nature Communications, 2021).

Tests used:
VlmD [1] = biological target: T1, VlmD (Streptomyces viridifaciens, UniProt Q84F32); assay: HPLC (OPA derivatization) of n-butylamine formed; LC-MS confirmation; format: biochemical; settings: 1 mM substrate, 0.1 mM PLP, 150 ug/mL enzyme, 50 mM potassium phosphate pH 7.5, 37 °C, 2 h
T1 construct: N-terminal His6 tag, codon-optimised gene in pET-22b(+), E. coli BL21(DE3), Talon resin

VlmD [2] = biological target: T1, VlmD; assay: HPLC (OPA derivatization) of iso-butylamine formed; LC-MS confirmation; format: biochemical; settings: 1 mM substrate, 0.1 mM PLP, 150 ug/mL enzyme, 50 mM potassium phosphate pH 7.5, 37 °C, 2 h

T1 sequence (Q84F32 entry or part of it): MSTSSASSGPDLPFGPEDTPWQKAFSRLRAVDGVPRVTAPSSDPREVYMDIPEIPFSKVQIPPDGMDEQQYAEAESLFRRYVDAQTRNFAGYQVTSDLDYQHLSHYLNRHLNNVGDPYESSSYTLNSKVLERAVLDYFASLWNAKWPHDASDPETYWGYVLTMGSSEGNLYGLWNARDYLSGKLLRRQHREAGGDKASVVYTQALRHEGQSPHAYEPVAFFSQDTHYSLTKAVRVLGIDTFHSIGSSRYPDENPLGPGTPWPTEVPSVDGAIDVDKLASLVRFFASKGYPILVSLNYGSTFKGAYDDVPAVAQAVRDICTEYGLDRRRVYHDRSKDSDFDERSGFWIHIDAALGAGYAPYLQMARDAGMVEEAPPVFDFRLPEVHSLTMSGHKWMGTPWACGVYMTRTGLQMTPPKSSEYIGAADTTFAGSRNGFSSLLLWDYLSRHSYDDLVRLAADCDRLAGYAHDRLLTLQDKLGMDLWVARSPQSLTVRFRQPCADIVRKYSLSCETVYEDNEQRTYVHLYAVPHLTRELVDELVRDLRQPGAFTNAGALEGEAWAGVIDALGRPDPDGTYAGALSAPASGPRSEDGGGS

Structure (SMILES)	HPLC (OPA derivatization) of n-butylamine formed; LC-MS confirmation (VlmD [1])	HPLC (OPA derivatization) of iso-butylamine formed; LC-MS confirmation (VlmD [2])
CCC[C@H](N)C(=O)O [L-norvaline]	VlmD showed relatively high activity toward L-2-aminobutyrate, L-norvaline, L-valine	
CC(C)[C@H](N)C(=O)O [L-valine]		VlmD consistently showed activities toward L-valine, L-leucine, and L-isoleucine as in the previous study
